In patent publication US6737383B1, “Herbicidal oxadiazolidines” (priority 1999, dated 2004):

Experiments:
purple nutsedge = test: Test B pre/postemergence purple nutsedge; format: in vivo, Cyperus rotundus
Procedure, shortened: (§1)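 Herbicidal effect was estimated by eye on a ten-point control scale after plants spent twelve to sixteen days in a greenhouse following soil or foliar treatment. Foliar sprays targeted plants at one to four leaves; all doses were formulated in a non-phytotoxic solvent with surfactant.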

giant foxtail = test: Test B pre/postemergence giant foxtail; format: in vivo, Setaria faberii
Procedure, shortened: as §1

morningglory = test: Test B pre/postemergence morningglory; format: in vivo, Ipomoea hederacea
Procedure, shortened: as §1

rape = test: Test B pre/postemergence rape; format: in vivo, Brassica napus
Procedure, shortened: as §1

wheat = test: Test B pre/postemergence wheat; format: in vivo, Triticum aestivum
Procedure, shortened: as §1

sugar beet = test: Test B pre/postemergence sugar beet; format: in vivo, Beta vulgaris
Procedure, shortened: as §1

blackgrass = test: Test B pre/postemergence blackgrass; format: in vivo, Alopecurus myosuroides
Procedure, shortened: as §1

corn = test: Test B pre/postemergence corn; format: in vivo, Zea mays
Procedure, shortened: as §1

soybean = test: Test B pre/postemergence soybean; format: in vivo, Glycine max
Procedure, shortened: as §1

surinam grass = test: Test B pre/postemergence surinam grass; format: in vivo, Brachiaria decumbens
Procedure, shortened: as §1

cocklebur = test: Test B pre/postemergence cocklebur; format: in vivo, Xanthium strumarium
Procedure, shortened: as §1

velvetleaf = test: Test B pre/postemergence velvetleaf; format: in vivo, Abutilon theophrasti
Procedure, shortened: as §1

pigweed = test: Test B pre/postemergence pigweed; format: in vivo, Amaranthus retroflexus
Procedure, shortened: as §1

crabgrass = test: Test B pre/postemergence crabgrass; format: in vivo, Digitaria sanguinalis
Procedure, shortened: as §1

wild oat = test: Test B pre/postemergence wild oat; format: in vivo, Avena fatua
Procedure, shortened: as §1

bedstraw = test: Test B pre/postemergence bedstraw; format: in vivo, Galium aparine
Procedure, shortened: as §1

[1] = Postemergence, Rate 62 g/ha, scale 0 to 10, 0 is no effect, 10 is complete control
[2] = Postemergence, Rate 125 g/ha, scale of 0 to 10 where 0 is no effect and 10 is complete control
[3] = Preemergence, Rate 125 g/ha, scale of 0 to 10 where 0 is no effect and 10 is complete control
[4] = Preemergence, Rate 250 g/ha, scale 0 (no effect) to 10 (complete control)
[5] = Rate 250 g/ha, Postemergence, scale 0 to 10, 0 is no effect, 10 is complete control
[6] = Rate 500 g/ha, Postemergence, scale 0 to 10, 0 is no effect, 10 is complete control
[7] = Preemergence, Rate 62 g/ha, scale of 0 to 10 where 0 is no effect and 10 is complete control
[8] = Preemergence, Rate 500 g/ha, scale of 0 to 10 where 0 is no effect and 10 is complete control

CC(C)N(C(=O)n1oc(=O)n(CC(F)F)c1=O)c1ccc(F)cc1 [Compound 710]
Plant response rating, Nutsedge (purple nutsedge; [1]): 0 | Nutsedge plant response rating (purple nutsedge; [2]): 0 | Plant response rating, Nutsedge (purple nutsedge; [3]): 0 | Nutsedge plant response rating (purple nutsedge; [4]): 0 | Nutsedge plant response rating (purple nutsedge; [5]): 0 | Nutsedge plant response rating (purple nutsedge; [6]): 3 | Plant response rating, Giant foxtail (giant foxtail; [1]): 8 | Giant foxtail plant response rating (giant foxtail; [2]): 8 | Giant foxtail plant response rating (giant foxtail; [7]): 10 | Plant response rating, Giant foxtail (giant foxtail; [3]): 10 | Giant foxtail plant response rating (giant foxtail; [4]): 10 | Giant foxtail plant response rating (giant foxtail; [5]): 9 | Giant foxtail plant response rating (giant foxtail; [6]): 9 | Plant response rating, Morningglory (morningglory; [1]): 4 | Morningglory plant response rating (morningglory; [2]): 4 | Morningglory plant response rating (morningglory; [7]): 0 | Plant response rating, Morningglory (morningglory; [3]): 0 | Morningglory plant response rating (morningglory; [4]): 0 | Morningglory plant response rating (morningglory; [5]): 4 | Morningglory plant response rating (morningglory; [6]): 8 | Plant response rating, Rape (rape; [1]): 0 | Rape plant response rating (rape; [2]): 0 | Rape plant response rating (rape; [7]): 7 | Plant response rating, Rape (rape; [3]): 8 | Rape plant response rating (rape; [4]): 8 | Rape plant response rating (rape; [5]): 3 | Rape plant response rating (rape; [6]): 5 | Plant response rating, Wheat (wheat; [1]): 0 | Wheat plant response rating (wheat; [2]): 0 | Wheat plant response rating (wheat; [7]): 5 | Plant response rating, Wheat (wheat; [3]): 6 | Wheat plant response rating (wheat; [4]): 7 | Wheat plant response rating (wheat; [5]): 4 | Wheat plant response rating (wheat; [6]): 6 | Plant response rating, Sugarbeets (sugar beet; [1]): 0 | Sugarbeets plant response rating (sugar beet; [2]): 0 | Sugarbeets plant response rating (sugar beet; [7]): 6 | Plant response rating, Sugarbeets (sugar beet; [3]): 6 | Sugarbeets plant response rating (sugar beet; [4]): 8 | Sugarbeets plant response rating (sugar beet; [5]): 3 | Sugarbeets plant response rating (sugar beet; [6]): 6 | Plant response rating, Blackgrass (blackgrass; [1]): 5 | Blackgrass plant response rating (blackgrass; [2]): 6 | Blackgrass plant response rating (blackgrass; [7]): 9 | Plant response rating, Blackgrass (blackgrass; [3]): 9 | Blackgrass plant response rating (blackgrass; [4]): 9 | Plant response rating, Blackgrass (blackgrass; [8]): 10 | Blackgrass plant response rating (blackgrass; [5]): 6 | Blackgrass plant response rating (blackgrass; [6]): 6 | Plant response rating, Corn (corn; [1]): 0 | Corn plant response rating (corn; [2]): 0 | Corn plant response rating (corn; [7]): 0 | Plant response rating, Corn (corn; [3]): 0 | Corn plant response rating (corn; [4]): 0 | Corn plant response rating (corn; [5]): 0 | Corn plant response rating (corn; [6]): 2 | Plant response rating, Soybean (soybean; [1]): 3 | Soybean plant response rating (soybean; [2]): 4 | Soybean plant response rating (soybean; [7]): 0 | Plant response rating, Soybean (soybean; [3]): 0 | Soybean plant response rating (soybean; [4]): 3 | Soybean plant response rating (soybean; [5]): 4 | Soybean plant response rating (soybean; [6]): 5 | Plant response rating, B. signalgrass (surinam grass; [1]): 5 | B. signalgrass plant response rating (surinam grass; [2]): 5 | B. signalgrass plant response rating (surinam grass; [7]): 8 | Plant response rating, B. signalgrass (surinam grass; [3]): 8 | B. signalgrass plant response rating (surinam grass; [4]): 8 | Plant response rating, B. signalgrass (surinam grass; [8]): 9 | B. signalgrass plant response rating (surinam grass; [5]): 6 | B. signalgrass plant response rating (surinam grass; [6]): 7 | Plant response rating, Cocklebur (cocklebur; [1]): 0 | Cocklebur plant response rating (cocklebur; [2]): 0 | Cocklebur plant response rating (cocklebur; [7]): 0 | Plant response rating, Cocklebur (cocklebur; [3]): 0 | Cocklebur plant response rating (cocklebur; [4]): 0 | Plant response rating, Cocklebur (cocklebur; [8]): 0 | Cocklebur plant response rating (cocklebur; [5]): 0 | Cocklebur plant response rating (cocklebur; [6]): 0 | Plant response rating, Velvetleaf (velvetleaf; [1]): 5 | Velvetleaf plant response rating (velvetleaf; [2]): 6 | Velvetleaf plant response rating (velvetleaf; [7]): 5 | Plant response rating, Velvetleaf (velvetleaf; [3]): 6 | Velvetleaf plant response rating (velvetleaf; [4]): 7 | Velvetleaf plant response rating (velvetleaf; [5]): 6 | Velvetleaf plant response rating (velvetleaf; [6]): 6 | Plant response rating, Redroot pigweed (pigweed; [1]): 8 | Redroot pigweed plant response rating (pigweed; [2]): 8 | Redroot pigweed plant response rating (pigweed; [7]): 8 | Plant response rating, Redroot pigweed (pigweed; [3]): 8 | Redroot pigweed plant response rating (pigweed; [4]): 10 | Redroot pigweed plant response rating (pigweed; [5]): 9 | Redroot pigweed plant response rating (pigweed; [6]): 9 | Plant response rating, Crabgrass (crabgrass; [1]): 8 | Crabgrass plant response rating (crabgrass; [2]): 9 | Crabgrass plant response rating (crabgrass; [7]): 10 | Plant response rating, Crabgrass (crabgrass; [3]): 10 | Crabgrass plant response rating (crabgrass; [4]): 10 | Crabgrass plant response rating (crabgrass; [5]): 9 | Crabgrass plant response rating (crabgrass; [6]): 9 | Plant response rating, Wild oats (wild oat; [1]): 1 | Wild oats plant response rating (wild oat; [2]): 3 | Wild oats plant response rating (wild oat; [7]): 8 | Plant response rating, Wild oats (wild oat; [3]): 9 | Wild oats plant response rating (wild oat; [4]): 9 | Wild oats plant response rating (wild oat; [5]): 5 | Wild oats plant response rating (wild oat; [6]): 6 | Bedstraw plant response rating (bedstraw; [2]): 1 | Bedstraw plant response rating (bedstraw; [7]): 3 | Plant response rating, Bedstraw (bedstraw; [3]): 3 | Bedstraw plant response rating (bedstraw; [4]): 5 | Plant response rating, Bedstraw (bedstraw; [8]): 7 | Bedstraw plant response rating (bedstraw; [5]): 6 | Bedstraw plant response rating (bedstraw; [6]): 8
